We go through ten molecules from US11998532B1 (priority 2023, dated 2024).

Each structure is given as a SMILES string. In brackets after ≈: the same amount, converted by molar mass.

The test deals with Susceptible (H37Rv) strain of Mycobacterium tuberculosis. Kind of test: Resazurin Microplate Assay (REMA), anti-tubercular activity, H37Rv. The class given is cell-based. The note with it: 192 h, read-out: MIC Susceptible (H37Rv). In general terms: Alamar Blue is a resazurin reagent that responds to reducing activity.
The term MIC denotes the smallest concentration in the dilution series that meets the test's criterion for growth inhibition. Regarding `COc1ccc(Cl)cc1-n1ncc(-c2nnc(-c3ccccc3)o2)c1C` [Compound 7d, 2-(1-(5-Chloro-2-methoxyphenyl)-5-methyl-1H-pyrazol-4-yl)-5-phenyl-1,3,4-oxadiazole], the MIC came to 16 µg/mL (≈ 43.6 µM).

With `COc1ccc(Cl)cc1-n1ncc(-c2nnc(-c3ccc(Br)cc3)o2)c1C` [Compound 7e, 2-(4-Bromophenyl)-5-(1-(5-chloro-2-methoxyphenyl)-5-methyl-1H-pyrazol-4-yl)-1,3,4-oxadiazole], the MIC stood at 8 µg/mL (≈ 17.9 µM).

`COc1ccc(Cl)cc1-n1ncc(-c2nnc(-c3ccc(Br)c(C)c3)o2)c1C` [Compound 7f, 2-(4-Bromo-3-methylphenyl)-5-(1-(5-chloro-2-methoxyphenyl)-5-methyl-1H-pyrazol-4-yl)-1,3,4-oxadiazole]: the MIC amounted to 32 µg/mL (≈ 69.6 µM).

As to `COc1ccc(Cl)cc1-n1ncc(-c2nnc(-c3cccc(F)c3)o2)c1C` [Compound 7g, 2-(1-(5-Chloro-2-methoxyphenyl)-5-methyl-1H-pyrazol-4-yl)-5-(3-fluorophenyl)-1,3,4-oxadiazole], the MIC was 8 µg/mL (≈ 20.8 µM).

As to `COc1ccc(Cl)cc1-n1ncc(-c2nnc(-c3cc(Cl)cc(Cl)c3)o2)c1C` [Compound 7h, 2-(1-(5-Chloro-2-methoxyphenyl)-5-methyl-1H-pyrazol-4-yl)-5-(3,5-dichlorophenyl)-1,3,4-oxadiazole], the MIC turned out to be 4 µg/mL (≈ 9.18 µM).

Consider `COc1ccc(Cl)cc1-n1ncc(-c2nnc(-c3ccc(C)c(Br)c3)o2)c1C` [Compound 7c, 2-(3-Bromo-4-methylphenyl)-5-(1-(5-chloro-2-methoxyphenyl)-5-methyl-1H-pyrazol-4-yl)-1,3,4-oxadiazole], for which the MIC was determined as 16 µg/mL (≈ 34.8 µM).

Regarding `COc1ccc(Cl)cc1-n1ncc(-c2nnc(-c3ccc(F)cc3)o2)c1C` [Compound 7b, 2-(1-(5-Chloro-2-methoxyphenyl)-5-methyl-1H-pyrazol-4-yl)-5-(4-fluorophenyl)-1,3,4-oxadiazole], the MIC was 4 µg/mL (≈ 10.4 µM).

Consider `COc1ccc(Cl)cc1-n1ncc(-c2nnc(-c3ccc(C)c([N+](=O)[O-])c3)o2)c1C` [Compound 7j, 2-(1-(5-Chloro-2-methoxyphenyl)-5-methyl-1H-pyrazol-4-yl)-5-(4-methyl-3-nitrophenyl)-1,3,4-oxadiazole], for which the MIC turned out to be 32 µg/mL (≈ 75.1 µM).

For `COc1ccc(Cl)cc1-n1ncc(-c2nnc(-c3ccc(Cl)c(Cl)c3)o2)c1C` [Compound 7i, 2-(1-(5-Chloro-2-methoxyphenyl)-5-methyl-1H-pyrazol-4-yl)-5-(3,4-dichlorophenyl)-1,3,4-oxadiazole], the MIC was 16 µg/mL (≈ 36.7 µM).

As for `COc1ccc(Cl)cc1-n1ncc(-c2nnc(-c3ccc(Cl)cc3)o2)c1C` [Compound 7a, 2-(1-(5-Chloro-2-methoxyphenyl)-5-methyl-1H-pyrazol-4-yl)-5-(4-chlorophenyl)-1,3,4-oxadiazole], the minimum inhibitory concentration (MIC) was found to be 4 µg/mL (≈ 9.97 µM).
